Data from publication doi:10.1101/2025.10.23.684218v2, “Development of a dual chemical probe for the USP16 and HDAC6 zinc-finger ubiquitin-binding domain” (biorxiv, 2025).
Read-outs that look alike come from different tables or passages of the source.

What was measured:
Assay in all cases: biochemical
Parameters in all cases: SPR, steady-state binding to immobilised biotinylated UBD proteins
BRAP = target: T1, BRAP (Homo sapiens, UniProt Q7Z569)
T1 construct: UBD, residues 304-390
T1 sequence (Q7Z569 1-592): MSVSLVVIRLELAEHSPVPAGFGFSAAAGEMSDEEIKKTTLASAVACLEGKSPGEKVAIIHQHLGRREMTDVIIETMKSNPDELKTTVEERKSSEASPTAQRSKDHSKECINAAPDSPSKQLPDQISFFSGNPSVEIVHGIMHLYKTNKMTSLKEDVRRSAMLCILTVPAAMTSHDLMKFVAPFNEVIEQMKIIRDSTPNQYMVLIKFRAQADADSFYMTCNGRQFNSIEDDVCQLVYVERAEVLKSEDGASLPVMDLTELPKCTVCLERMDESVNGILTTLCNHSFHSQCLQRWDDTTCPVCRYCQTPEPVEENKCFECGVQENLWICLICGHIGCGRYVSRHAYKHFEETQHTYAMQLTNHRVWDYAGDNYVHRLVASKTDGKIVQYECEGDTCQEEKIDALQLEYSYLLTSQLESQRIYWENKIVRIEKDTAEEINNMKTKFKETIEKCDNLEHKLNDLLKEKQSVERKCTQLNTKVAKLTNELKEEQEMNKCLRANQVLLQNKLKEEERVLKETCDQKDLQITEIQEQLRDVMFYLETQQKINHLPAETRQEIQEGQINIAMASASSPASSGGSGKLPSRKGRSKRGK

USP13 = target: T2, USP13 (Homo sapiens, UniProt Q92995)
T2 construct: UBD, residues 183-307
T2 sequence (Q92995 1-863): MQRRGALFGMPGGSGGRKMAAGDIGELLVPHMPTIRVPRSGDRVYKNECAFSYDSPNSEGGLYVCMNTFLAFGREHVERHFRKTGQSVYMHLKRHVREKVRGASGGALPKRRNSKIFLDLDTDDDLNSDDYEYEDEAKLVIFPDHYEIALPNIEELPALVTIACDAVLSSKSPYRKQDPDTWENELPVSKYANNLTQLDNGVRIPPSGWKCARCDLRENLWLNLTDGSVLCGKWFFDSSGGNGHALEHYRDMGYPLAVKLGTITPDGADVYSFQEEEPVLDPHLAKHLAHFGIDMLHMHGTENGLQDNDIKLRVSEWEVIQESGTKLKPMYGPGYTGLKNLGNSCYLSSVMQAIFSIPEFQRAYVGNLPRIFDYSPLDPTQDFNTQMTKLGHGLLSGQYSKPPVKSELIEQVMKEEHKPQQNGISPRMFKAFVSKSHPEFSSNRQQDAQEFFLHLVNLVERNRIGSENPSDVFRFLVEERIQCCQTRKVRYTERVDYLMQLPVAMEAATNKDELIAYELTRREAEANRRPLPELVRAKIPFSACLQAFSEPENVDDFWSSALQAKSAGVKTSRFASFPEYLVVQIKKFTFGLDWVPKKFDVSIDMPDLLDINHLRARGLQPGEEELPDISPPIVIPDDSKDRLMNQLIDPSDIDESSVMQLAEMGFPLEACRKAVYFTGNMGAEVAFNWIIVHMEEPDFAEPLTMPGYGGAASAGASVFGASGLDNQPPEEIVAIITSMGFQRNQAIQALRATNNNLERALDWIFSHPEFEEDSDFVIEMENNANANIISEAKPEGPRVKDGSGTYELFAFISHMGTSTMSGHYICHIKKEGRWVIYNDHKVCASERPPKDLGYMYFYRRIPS

USP3 = target: T3, USP3 (Homo sapiens, UniProt Q9Y6I4)
T3 sequence (Q9Y6I4 1-520): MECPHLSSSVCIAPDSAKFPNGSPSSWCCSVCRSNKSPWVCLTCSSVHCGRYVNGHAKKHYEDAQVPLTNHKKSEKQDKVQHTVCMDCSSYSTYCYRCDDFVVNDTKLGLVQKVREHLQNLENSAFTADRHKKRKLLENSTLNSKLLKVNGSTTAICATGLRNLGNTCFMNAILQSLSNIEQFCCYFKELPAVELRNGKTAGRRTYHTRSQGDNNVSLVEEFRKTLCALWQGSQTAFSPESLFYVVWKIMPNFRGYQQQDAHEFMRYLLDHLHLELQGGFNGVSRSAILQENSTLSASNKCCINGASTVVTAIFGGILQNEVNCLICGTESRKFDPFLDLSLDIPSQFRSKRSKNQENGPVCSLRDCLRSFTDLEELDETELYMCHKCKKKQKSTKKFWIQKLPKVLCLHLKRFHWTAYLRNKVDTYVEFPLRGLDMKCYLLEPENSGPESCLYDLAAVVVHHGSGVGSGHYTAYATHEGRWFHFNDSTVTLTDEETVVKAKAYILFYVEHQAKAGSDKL

USP49 = target: T4, USP49 (Homo sapiens, UniProt Q70CQ1)
T4 construct: UBD, residues 1-115
T4 sequence (Q70CQ1 1-688): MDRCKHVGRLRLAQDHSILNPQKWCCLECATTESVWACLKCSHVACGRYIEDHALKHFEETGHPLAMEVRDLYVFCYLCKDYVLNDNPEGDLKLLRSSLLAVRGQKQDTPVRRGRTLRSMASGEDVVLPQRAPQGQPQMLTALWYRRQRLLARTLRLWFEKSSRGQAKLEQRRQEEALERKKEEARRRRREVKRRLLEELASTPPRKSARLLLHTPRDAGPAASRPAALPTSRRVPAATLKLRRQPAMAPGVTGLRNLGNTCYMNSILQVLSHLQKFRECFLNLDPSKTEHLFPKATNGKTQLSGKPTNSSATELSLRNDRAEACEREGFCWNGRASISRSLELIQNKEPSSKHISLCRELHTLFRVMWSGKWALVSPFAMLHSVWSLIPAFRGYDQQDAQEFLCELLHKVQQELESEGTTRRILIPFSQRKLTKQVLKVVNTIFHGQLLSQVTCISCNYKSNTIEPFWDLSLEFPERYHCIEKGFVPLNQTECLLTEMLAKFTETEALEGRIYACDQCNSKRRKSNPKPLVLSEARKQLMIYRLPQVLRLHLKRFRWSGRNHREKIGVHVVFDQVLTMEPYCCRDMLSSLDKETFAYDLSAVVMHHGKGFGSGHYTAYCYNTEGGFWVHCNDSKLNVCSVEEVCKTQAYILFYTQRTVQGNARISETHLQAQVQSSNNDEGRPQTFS

[1] = read-out: Probe KD (nM) SGC-UBD1031
[2] = read-out: Negative Control KD (nM) SGC-UBD1031N

## C[C@H](NC(=O)Cn1c(CCC(=O)O)nc2c(Cl)cccc2c1=O)c1c(F)cccc1F [compound 15, (S)-3-(8-chloro-3-(2-((1-(2,6-difluorophenyl)ethyl)amino)-2-oxoethyl)-4-oxo-3,4-dihydroquinazolin-2-yl)propanoic acid]
BRAP; [1]
  Kd: > 10000 nM
USP13; [1]
  Kd: > 10000 nM
USP3; [1]
  Kd: > 10000 nM
USP49; [1]
  Kd: 7500 ± 870 nM

## C[C@@H](NC(=O)Cn1c(CCC(=O)O)nc2c(Cl)cccc2c1=O)c1c(F)cccc1F [compound 16, (R)-3-(8-chloro-3-(2-((1-(2,6-difluorophenyl)ethyl)amino)-2-oxoethyl)-4-oxo-3,4-dihydroquinazolin-2-yl)propanoic acid]
BRAP; [2]
  Kd: > 10000 nM
USP13; [2]
  Kd: > 10000 nM
USP3; [2]
  Kd: 8700 ± 1800 nM
USP49; [2]
  Kd: 6700 ± 2100 nM
